Assay results: PubChem BioAssay (NCI)
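Dose response: 5 concentrations. Exposure: 48 h. Format: 96-well plates. Endpoint: linear interpolation; highest concentration if not reached. GI50 = concentration required for 50% inhibition of growth. TGI marks complete inhibition of growth.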

Key:
Assay in all cases: NCI anticancer screen, dose series, 48 h
NCI-H460 lung = system: NCI-H460 lung
CAKI-1 renal = system: CAKI-1 renal
RXF 393 renal = system: RXF 393 renal
HOP-92 NSCLC = system: HOP-92 NSCLC
PC-3 prostate = system: PC-3 prostate
LOX IMVI melanoma = system: LOX IMVI melanoma
A549 NSCLC = system: A549 NSCLC
A498 renal = system: A498 renal
DU-145 prostate = system: DU-145 prostate
SK-MEL-2 melanoma = system: SK-MEL-2 melanoma
NCI-H522 lung = system: NCI-H522 lung
BT-549 breast = system: BT-549 breast
K-562 leukemia = system: K-562 leukemia
SF-295 CNS = system: SF-295 CNS
EKVX NSCLC = system: EKVX NSCLC
COLO 205 colon = system: COLO 205 colon
HCT-15 colon = system: HCT-15 colon
HCT-116 colon = system: HCT-116 colon
U251 CNS = system: U251 CNS
SF-539 CNS = system: SF-539 CNS
786-0 renal = system: 786-0 renal
TK-10 renal = system: TK-10 renal
MDA-MB-435 = system: MDA-MB-435
HCC-2998 colon = system: HCC-2998 colon
IGROV1 ovarian = system: IGROV1 ovarian
SNB-75 CNS = system: SNB-75 CNS
KM12 colon = system: KM12 colon
SNB-19 CNS = system: SNB-19 CNS
OVCAR-8 ovarian = system: OVCAR-8 ovarian
OVCAR-3 ovarian = system: OVCAR-3 ovarian
ACHN renal = system: ACHN renal
SK-MEL-5 melanoma = system: SK-MEL-5 melanoma
M14 melanoma = system: M14 melanoma
T-47D breast = system: T-47D breast
MDA-MB-231 breast = system: MDA-MB-231 breast
MCF7 breast = system: MCF7 breast
NCI/ADR-RES ovarian = system: NCI/ADR-RES ovarian
CCRF-CEM leukemia = system: CCRF-CEM leukemia
HS 578T breast = system: HS 578T breast
HOP-62 NSCLC = system: HOP-62 NSCLC
MOLT-4 leukemia = system: MOLT-4 leukemia
SF-268 CNS = system: SF-268 CNS
MALME-3M melanoma = system: MALME-3M melanoma
UACC-62 melanoma = system: UACC-62 melanoma
NCI-H23 lung = system: NCI-H23 lung
OVCAR-4 ovarian = system: OVCAR-4 ovarian
OVCAR-5 ovarian = system: OVCAR-5 ovarian
SR leukemia = system: SR leukemia
UO-31 renal = system: UO-31 renal
HL-60(TB) leukemia = system: HL-60(TB) leukemia
UACC-257 melanoma = system: UACC-257 melanoma
SK-OV-3 ovarian = system: SK-OV-3 ovarian
RPMI-8226 leukemia = system: RPMI-8226 leukemia
NCI-H226 lung = system: NCI-H226 lung
SN12C renal = system: SN12C renal
SK-MEL-28 melanoma = system: SK-MEL-28 melanoma
HT29 colon = system: HT29 colon
SW-620 colon = system: SW-620 colon
MDA-N = system: MDA-N

COC(=O)C(C)NP(=O)(OCc1ccc(Cn2cnc3c(=O)[nH]c(N)nc32)cc1)Oc1ccccc1 (configuration not stated)
GI50 (NCI-H460 lung): > 100 µM | TGI (NCI-H460 lung): > 100 µM | GI50 (CAKI-1 renal): > 100 µM | TGI (CAKI-1 renal): > 100 µM | GI50 (RXF 393 renal): > 100 µM | TGI (RXF 393 renal): > 100 µM | GI50 (HOP-92 NSCLC): > 100 µM | TGI (HOP-92 NSCLC): > 100 µM | GI50 (PC-3 prostate): > 100 µM | TGI (PC-3 prostate): > 100 µM | GI50 (LOX IMVI melanoma): > 100 µM | TGI (LOX IMVI melanoma): > 100 µM | GI50 (A549 NSCLC): > 100 µM | TGI (A549 NSCLC): > 100 µM | GI50 (A498 renal): > 100 µM | TGI (A498 renal): > 100 µM | GI50 (DU-145 prostate): > 100 µM | TGI (DU-145 prostate): > 100 µM | GI50 (SK-MEL-2 melanoma): > 100 µM | TGI (SK-MEL-2 melanoma): > 100 µM | GI50 (NCI-H522 lung): > 100 µM | TGI (NCI-H522 lung): > 100 µM | GI50 (BT-549 breast): > 100 µM | TGI (BT-549 breast): > 100 µM | GI50 (K-562 leukemia): > 100 µM | TGI (K-562 leukemia): > 100 µM | GI50 (SF-295 CNS): > 100 µM | TGI (SF-295 CNS): > 100 µM | GI50 (EKVX NSCLC): > 100 µM | TGI (EKVX NSCLC): > 100 µM | GI50 (COLO 205 colon): > 100 µM | TGI (COLO 205 colon): > 100 µM | GI50 (HCT-15 colon): > 100 µM | TGI (HCT-15 colon): > 100 µM | GI50 (HCT-116 colon): > 100 µM | TGI (HCT-116 colon): > 100 µM | GI50 (U251 CNS): > 100 µM | TGI (U251 CNS): > 100 µM | GI50 (SF-539 CNS): > 100 µM | TGI (SF-539 CNS): > 100 µM | GI50 (786-0 renal): > 100 µM | TGI (786-0 renal): > 100 µM | GI50 (TK-10 renal): > 100 µM | TGI (TK-10 renal): > 100 µM | GI50 (MDA-MB-435): > 100 µM | TGI (MDA-MB-435): > 100 µM | GI50 (HCC-2998 colon): > 100 µM | TGI (HCC-2998 colon): > 100 µM | GI50 (IGROV1 ovarian): > 100 µM | TGI (IGROV1 ovarian): > 100 µM | GI50 (SNB-75 CNS): > 100 µM | TGI (SNB-75 CNS): > 100 µM | GI50 (KM12 colon): > 100 µM | TGI (KM12 colon): > 100 µM | GI50 (SNB-19 CNS): > 100 µM | TGI (SNB-19 CNS): > 100 µM | GI50 (OVCAR-8 ovarian): > 100 µM | TGI (OVCAR-8 ovarian): > 100 µM | GI50 (OVCAR-3 ovarian): > 100 µM | TGI (OVCAR-3 ovarian): > 100 µM | GI50 (ACHN renal): > 100 µM | TGI (ACHN renal): > 100 µM | GI50 (SK-MEL-5 melanoma): > 100 µM | TGI (SK-MEL-5 melanoma): > 100 µM | GI50 (M14 melanoma): > 100 µM | TGI (M14 melanoma): > 100 µM | GI50 (T-47D breast): 34.6 µM | TGI (T-47D breast): > 100 µM | GI50 (MDA-MB-231 breast): > 100 µM | TGI (MDA-MB-231 breast): > 100 µM | GI50 (MCF7 breast): > 100 µM | TGI (MCF7 breast): > 100 µM | GI50 (NCI/ADR-RES ovarian): > 100 µM | TGI (NCI/ADR-RES ovarian): > 100 µM | GI50 (CCRF-CEM leukemia): > 100 µM | TGI (CCRF-CEM leukemia): > 100 µM | GI50 (HS 578T breast): > 100 µM | TGI (HS 578T breast): > 100 µM | GI50 (HOP-62 NSCLC): > 100 µM | TGI (HOP-62 NSCLC): > 100 µM | GI50 (MOLT-4 leukemia): > 100 µM | TGI (MOLT-4 leukemia): > 100 µM | GI50 (SF-268 CNS): > 100 µM | TGI (SF-268 CNS): > 100 µM | GI50 (MALME-3M melanoma): > 100 µM | TGI (MALME-3M melanoma): > 100 µM | GI50 (UACC-62 melanoma): > 100 µM | TGI (UACC-62 melanoma): > 100 µM | GI50 (NCI-H23 lung): > 100 µM | TGI (NCI-H23 lung): > 100 µM | GI50 (OVCAR-4 ovarian): > 100 µM | TGI (OVCAR-4 ovarian): > 100 µM | GI50 (OVCAR-5 ovarian): > 100 µM | TGI (OVCAR-5 ovarian): > 100 µM | GI50 (SR leukemia): > 100 µM | TGI (SR leukemia): > 100 µM | GI50 (UO-31 renal): > 100 µM | TGI (UO-31 renal): > 100 µM | GI50 (HL-60(TB) leukemia): > 100 µM | TGI (HL-60(TB) leukemia): > 100 µM | GI50 (UACC-257 melanoma): > 100 µM | TGI (UACC-257 melanoma): > 100 µM | GI50 (SK-OV-3 ovarian): > 100 µM | TGI (SK-OV-3 ovarian): > 100 µM | GI50 (RPMI-8226 leukemia): > 100 µM | TGI (RPMI-8226 leukemia): > 100 µM | GI50 (NCI-H226 lung): > 100 µM | TGI (NCI-H226 lung): > 100 µM | GI50 (SN12C renal): > 100 µM | TGI (SN12C renal): > 100 µM | GI50 (SK-MEL-28 melanoma): > 100 µM | TGI (SK-MEL-28 melanoma): > 100 µM | GI50 (HT29 colon): > 100 µM | TGI (HT29 colon): > 100 µM | GI50 (SW-620 colon): > 100 µM | TGI (SW-620 colon): > 100 µM

CC1(C)CC[C@]2(C(=O)O)CC[C@]3(C)C(=CC[C@@H]4[C@@]5(C)C[C@H](O)[C@H](O)[C@@](C)(CO)C5=CC[C@]43C)[C@@H]2C1
TGI (NCI-H460 lung): 72.2 µM | TGI (CAKI-1 renal): > 100 µM | TGI (HOP-92 NSCLC): > 100 µM | TGI (PC-3 prostate): > 100 µM | TGI (LOX IMVI melanoma): > 100 µM | TGI (A549 NSCLC): > 100 µM | TGI (A498 renal): > 100 µM | TGI (DU-145 prostate): > 100 µM | TGI (SK-MEL-2 melanoma): > 100 µM | TGI (NCI-H522 lung): > 100 µM | TGI (K-562 leukemia): > 100 µM | TGI (SF-295 CNS): > 100 µM | TGI (EKVX NSCLC): > 100 µM | TGI (COLO 205 colon): 42.4 µM | TGI (HCT-15 colon): > 100 µM | TGI (HCT-116 colon): > 100 µM | TGI (U251 CNS): > 100 µM | TGI (SF-539 CNS): > 100 µM | TGI (786-0 renal): > 100 µM | TGI (TK-10 renal): > 100 µM | TGI (MDA-MB-435): > 100 µM | TGI (HCC-2998 colon): 92.6 µM | TGI (IGROV1 ovarian): > 100 µM | TGI (SNB-75 CNS): > 100 µM | TGI (KM12 colon): > 100 µM | TGI (SNB-19 CNS): > 100 µM | TGI (OVCAR-8 ovarian): > 100 µM | TGI (MDA-N): > 100 µM | TGI (OVCAR-3 ovarian): > 100 µM | TGI (ACHN renal): > 100 µM | TGI (SK-MEL-5 melanoma): > 100 µM | TGI (M14 melanoma): > 100 µM | TGI (T-47D breast): > 100 µM | TGI (MDA-MB-231 breast): > 100 µM | TGI (MCF7 breast): > 100 µM | TGI (NCI/ADR-RES ovarian): > 100 µM | TGI (CCRF-CEM leukemia): > 100 µM | TGI (HS 578T breast): > 100 µM | TGI (HOP-62 NSCLC): > 100 µM | TGI (MOLT-4 leukemia): > 100 µM | TGI (SF-268 CNS): > 100 µM | TGI (MALME-3M melanoma): > 100 µM | TGI (UACC-62 melanoma): > 100 µM | TGI (NCI-H23 lung): > 100 µM | TGI (OVCAR-4 ovarian): 68.5 µM | TGI (OVCAR-5 ovarian): > 100 µM | TGI (SR leukemia): > 100 µM | TGI (UO-31 renal): > 100 µM | TGI (HL-60(TB) leukemia): > 100 µM | TGI (UACC-257 melanoma): > 100 µM | TGI (SK-OV-3 ovarian): > 100 µM | TGI (RPMI-8226 leukemia): > 100 µM | TGI (SN12C renal): > 100 µM | TGI (SK-MEL-28 melanoma): > 100 µM | TGI (HT29 colon): > 100 µM | TGI (SW-620 colon): > 100 µM
